Patent publication US8829014B2, “Thiazole and thiophene analogues, and their use in treating autoimmune diseases and cancers” (Board of Supervisors of Louisiana State University and …, priority 2006, dated 2014)

Tests used:
carageenan-induced edema = experiment: Carrageenan-induced rat paw edema test (anti-inflammatory activity); format: in vivo, Sprague-Dawley rats; details: rat paw edema, 50 mg/kg, reading 3 hours after carrageenan, [(Control−Test)/Control]×100%; for inhibition in vivo at 50 mg/kg: Rattus norvegicus, po, 3 h, read-out: % Protection P
How it was run: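 Sprague-Dawley rats (male and female, 150-250 g), fasted 18 h, given compound orally at 50 mg/kg in 0.1% sodium CMC (alternatively i.v., s.c. or i.p.). 1% carrageenan injected sub-plantar in right hind paw 1 h later. Paw displacement read again 3 h later; % protection = [(Control−Test)/Control]×100 versus saline control.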

NF-κB = experiment: TNF-α-induced NF-κB-dependent luciferase expression in HEK cells; format: cell-based; details: luciferase in HEK/NF-κB cells, as described in Example 398; for inhibition at 1 µM: Homo sapiens, HEK293, 1 uM, read-out: NFkB inhibition @ 1 uM
AP-1 = experiment: PMA-induced AP-1 luciferase expression in HEK cells; format: cell-based; details: luciferase in HEK/AP-1 cells, as described in Example 398; for inhibition at 1 µM: AP1, 1 uM

Row | Molecule | inhibition in vivo at 50 mg/kg (carageenan-induced edema) [%] | inhibition at 1 µM (NF-κB) [%] | inhibition at 1 µM (AP-1) [%] | % Protection P (carageenan-induced edema) [%] | NFkB inhibition @ 1 uM (NF-κB) | AP-1 inhibition @ 1 uM (AP-1)
1 | O=C(c1ccncc1)c1sc(N2CCN(C(=O)c3ccco3)CC2)nc1-c1ccco1 [Example 377, {2-[4-(Furan-2-carbonyl)-piperazin-1-yl]-4-furan-2-yl-thiazol-5-yl}-pyridin-4-yl-methanone] | 32 | -7.88 | 4.84 | – | – | –
2 | COc1c(C)cnc(-c2sc(N3CCN(C(=O)c4ccco4)CC3)nc2-c2ccco2)c1C [Example 378, Furan-2-yl-{4-[4-furan-2-yl-5-(4-methoxy-3,5-dimethyl-pyridin-2-yl)-thiazol-2-yl]-piperazin-1-yl}-methanone] | 84.2 | 22.1 | 43.3 | – | – | –
3 | Cc1c(OCC(F)(F)F)ccnc1-c1sc(N2CCN(C(=O)c3ccco3)CC2)nc1-c1ccco1 [Example 379, Furan-2-yl-(4-{4-furan-2-yl-5-[3-methyl-4-(2,2,2-trifluoro-ethoxy)-pyridin-2-yl]-thiazol-2-yl}-piperazin-1-yl)-methanone] | 62.4 | 51.1 | 3.23 | – | – | –
4 | O=C(c1ccc(Cl)cc1)c1sc(N2CCN(C(=O)c3ccco3)CC2)nc1-c1ccccc1 [Example 383, (4-Chloro-phenyl)-{2-[4-(furan-2-carbonyl)-piperazin-1-yl]-4-phenyl-thiazol-5-yl}-methanone] | 62 | -0.23 | 13.3 | – | – | –
5 | O=C(c1ccc(Cl)cc1Cl)c1sc(N2CCN(C(=O)c3ccco3)CC2)nc1-c1ccccc1 [Example 384, (2,4-Dichloro-phenyl)-{2-[4-(furan-2-carbonyl)-piperazin-1-yl]-4-phenyl-thiazol-5-yl}-methanone] | 71.6 | -1.4 | 42.5 | – | – | –
6 | CS(=O)(=O)c1ccc(C(=O)c2sc(N3CCN(C(=O)c4ccco4)CC3)nc2-c2ccccc2)cc1 [Example 385, {2-[4-(Furan-2-carbonyl)-piperazin-1-yl]-4-phenyl-thiazol-5-yl}-(4-methanesulfonyl-phenyl)-methanone] | 67 | -15.1 | 6.44 | – | – | –
7 | O=C(c1cccnc1)c1sc(N2CCN(C(=O)c3ccco3)CC2)nc1-c1ccccc1 [Example 386, {2-[4-(Furan-2-carbonyl)-piperazin-1-yl]-4-phenyl-thiazol-5-yl}-pyridin-3-yl-methanone] | 23 | 52.8 | 22.5 | – | – | –
8 | COc1c(C)cnc(-c2sc(N3CCN(C(=O)c4ccco4)CC3)nc2-c2ccccc2)c1C [Example 388, Furan-2-yl-{4-[5-(4-methoxy-3,5-dimethyl-pyridin-2-yl)-4-phenyl-thiazol-2-yl]-piperazin-1-yl}-methanone] | 73.4 | 7.64 | 52.1 | – | – | –
9 | Cc1c(OCC(F)(F)F)ccnc1-c1sc(N2CCN(C(=O)c3ccco3)CC2)nc1-c1ccccc1 [Example 389, Furan-2-yl-(4-{5-[3-methyl-4-(2,2,2-trifluoro-ethoxy)-pyridin-2-yl]-4-phenyl-thiazol-2-yl}-piperazin-1-yl)-methanone] | 61.6 | 30.7 | 42.5 | – | – | –
10 | O=C(c1ccccn1)c1sc(N2CCN(C(=O)c3ccco3)CC2)nc1-c1ccccc1 [Example 390, {2-[4-(Furan-2-carbonyl)-piperazin-1-yl]-4-phenyl-thiazol-5-yl}-pyridin-2-yl-methanone] | 17 | 0.47 | 40.9 | – | – | –
11 | Cc1ccc(Nc2nc(-c3ccccc3)c(C(=O)c3sc(Nc4ccc(C)cc4)nc3-c3ccccc3)s2)cc1 [Example 394, Bis-[2-(4-methyl-phenylamino)-4-phenyl-thiazol-5-yl]-methanone] | 56 | 18.7 | 41.9 | – | – | –
12 | (5-Morpholin-4-yl-4-pyridin-3-yl-thiophene-2-yl)-phenyl-methanone [Example 90] | – | – | – | 6.09 | 7.91 | 59.49
13 | Bis-[2-(2-benzoyl-amino)-4-benzayl-thiazole-5-yl]-methanone [Example 135] | – | – | – | 34.72 | 39.98 | 41.43
14 | Bis-[2-(2-furoyl-amino)-4-benzayl-thiazole-5-yl]-methanone [Example 136] | – | – | – | 45.13 | 44.46 | 32.23
15 | Bis-[4-(4-chloro-phenyl)-5-morpholin-4-yl-thiophen-2-yl]-methanone [Example 114] | – | – | – | 30.55 | −39.23 | −70.59
16 | Dimethyl[carbonyl-bis(4-phenyl-1,3-thiazole-5,2-diyl)]biscarbamate [Example 130] | – | – | – | 40.78 | 12.78 | 9.2
17 | N-{4-[4-(4-Chloro-phenyl)-5-morpholin-4-yl-thiophen-2-carbonyl]-phenyl}acetamide [Example 85] | – | – | – | 20 | −17.34 | 22.58
